Measurements taken from ChEMBL document CHEMBL3259526, “(11)C-labeling and preliminary evaluation of vortioxetine as a PET radioligand” (Bioorg Med Chem Lett, 2014).

Legend:
[1] = Drug uptake in Danish Landrace pig striatum at 124 MBq, iv after 90 mins by PET analysis; assay type: ADME, organism-based, Sus scrofa; conditions: in vivo, 1.5 h
[2] = Drug uptake in Danish Landrace pig hippocampus at 124 MBq, iv after 90 mins by PET analysis; assay type: ADME, organism-based, Sus scrofa; conditions: in vivo, 1.5 h
[3] = Drug uptake in Danish Landrace pig thalamus at 124 MBq, iv after 90 mins by PET analysis; assay type: ADME, organism-based, Sus scrofa; conditions: in vivo, 1.5 h
[4] = Drug uptake in Danish Landrace pig cerebellum at 124 MBq, iv after 90 mins by PET analysis; assay type: ADME, organism-based, Sus scrofa; conditions: in vivo, 1.5 h
[5] = Drug uptake in Danish Landrace pig brain at 124 MBq, iv after 60 mins by PET analysis; assay type: ADME, organism-based, Sus scrofa; conditions: in vivo, 1 h
[6] = Drug uptake in Danish Landrace pig cortex at 124 MBq, iv after 90 mins by PET analysis; assay type: ADME, organism-based, Sus scrofa; conditions: in vivo, 1.5 h
[7] = Plasma protein binding in pig plasma at 5 MBq after 2.5 hrs by equilibrium dialysis chamber method; assay type: ADME, cell-free, Sus scrofa; conditions: read-out: PPB (converted)

Drug uptake [1]: Active | Drug uptake [2]: Active | Drug uptake [3]: Active | Drug uptake [4]: Active | Drug uptake [5]: Active | Drug uptake [6]: Active | fraction unbound at 2.5 h, 5 MBq [7]: 0.02
Structure (SMILES): Cc1ccc(Sc2ccccc2N2CCNCC2)c([11CH3])c1
